Source: ChEMBL document CHEMBL3638560, “Picolinamido-propanoic acid derivatives useful as glucagon receptor antagonists” (2014)

Target: Glucagon receptor (Homo sapiens, UniProt P47871)
Experiment: Binding Assay: The binding assay was performed by a filtration method in a 384 well format. Membranes at a final protein concentration of 6 μg/well were incubated with 125I-glucagon at 0.3 nM and in the presence of compound for 2 hours at room temperature in a total reaction volume of 40 μL per well. Assay buffer consisted of 50 mM HEPES, pH 7.4, 5 mM MgCl2, 1 mM CaCl2 and 0.2% BSA. 30 μL of the reaction was then transferred to PEI treated filter plates and followed by filter aspiration. Plates were then washed 5x and allowed to dry at room temperature overnight. The next day the bottom of the plate was covered with seal tape and scintillant was added. Total counts retained by the filters were quantified with a Top Count instrument.

Chain of Glucagon receptor (P47871 whole entry): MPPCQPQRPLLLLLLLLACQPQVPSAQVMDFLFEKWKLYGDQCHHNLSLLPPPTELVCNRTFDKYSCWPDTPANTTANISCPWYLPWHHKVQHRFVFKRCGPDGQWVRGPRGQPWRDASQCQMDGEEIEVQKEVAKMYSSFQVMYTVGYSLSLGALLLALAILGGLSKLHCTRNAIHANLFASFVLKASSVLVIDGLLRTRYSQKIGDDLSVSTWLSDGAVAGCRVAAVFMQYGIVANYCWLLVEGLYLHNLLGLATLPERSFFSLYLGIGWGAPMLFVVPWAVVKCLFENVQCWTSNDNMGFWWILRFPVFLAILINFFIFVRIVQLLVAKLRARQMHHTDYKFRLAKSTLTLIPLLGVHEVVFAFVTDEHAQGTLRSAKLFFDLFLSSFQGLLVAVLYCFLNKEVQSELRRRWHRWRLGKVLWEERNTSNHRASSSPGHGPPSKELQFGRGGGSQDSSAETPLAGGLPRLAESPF

Ki: 47 nM
SMILES: O=C(O)CCNC(=O)c1ccc(-c2cc(C(F)(F)F)ccc2CNc2ccc(-c3ccc(Cl)cc3C(F)(F)F)cc2)cn1
